Assay results as given in publication PMC3827244, “An Ultrasensitive High Throughput Screen for DNA Methyltransferase 1-Targeted Molecular Probes” (PLoS ONE, 2013).

Tests used:
calf thymus DNA = test: DNA intercalation assay (ethidium bromide displacement); type: binding; conditions: 10 µM compound
Method: DNA intercalation was assessed by examining the ability of the compounds to displace ethidium bromide from calf thymus DNA (ctDNA; Sigma). Duplicate assays (100 µl) were conducted in black 96 well plates and contained 15 µg/ml ctDNA, 1.5 µM ethidium bromide and 10 µM compound in methylation assay buffer. DMSO was used as a negative control and daunorubicin (Sigma) was used as a positive control. Fluorescence was measured using excitation and emission wavelengths of 320 nm and 600 nm, respectively.

CD-DNMT3A/DNMT3L complex = target: T1, CD-DNMT3A/DNMT3L complex (Homo sapiens, UniProt Q9Y6K1); test: Compound selectivity, endonuclease-coupled DNA methylation assay; type: biochemical; conditions: 20 µM inhibitor, 20 nM methyltransferase, 0.25 mM SAM
T1 construct: CD-DNMT3A; amino acids 611–912; His tag (N); made in house; host or cells: Rosetta 2(DE3)pLysS (E. coli) for CD-DNMT3A
Method: (§1) Triplicate assays (100 µl) containing 0.25 mM SAM, 0.2 µM oligonucleotide 8006, 0.8 U GlaI, 20 nM methyltransferase, 20 µM inhibitor and 1% DMSO were conducted in 96 well plates. Following enzyme addition, assay plates were incubated at 37°C for 75 min and fluorescence was measured in a BioTek Neo plate reader. A control containing only GlaI was subtracted from each assay. […] Percent activity was determined by comparing product formation to a DMSO containing control assay.

[1] = target: T2, RFTS-containing DNMT1 (amino acids 351–1616) (Homo sapiens, UniProt P26358); test: as above; type: biochemical; conditions: 20 µM inhibitor, 20 nM methyltransferase, 0.25 mM SAM
T2 construct: RFTS-containing DNMT1, amino acids 351–1616; made in house
Method: as §1

M.SssI DNMT = target: T3, M.SssI DNMT (Spiroplasma monobiae, UniProt P15840); test: as above; type: biochemical, bacterial; conditions: 1.25 h; 20 µM inhibitor, 20 nM methyltransferase, 0.25 mM SAM; read-out: Percent activity, M.SssI DNMT
T3 construct: purchased New England Biolabs
Method: as §1, with “After identifying direct inhibitors of DNMT1 lacking the RFTS domain, inhibitor selectivity was assessed by examining inhibition of RFTS-containing DNMT1 (amino acids 351–1616), CD-DNMT3A/DNMT3L complex, and the bacterial cytosine methyltransferase from M. SssI (New England Biolabs) using the endonuclease-coupled DNA methylation assay. Triplicate” for “Triplicate”

T1 sequence (Q9Y6K1 611-912): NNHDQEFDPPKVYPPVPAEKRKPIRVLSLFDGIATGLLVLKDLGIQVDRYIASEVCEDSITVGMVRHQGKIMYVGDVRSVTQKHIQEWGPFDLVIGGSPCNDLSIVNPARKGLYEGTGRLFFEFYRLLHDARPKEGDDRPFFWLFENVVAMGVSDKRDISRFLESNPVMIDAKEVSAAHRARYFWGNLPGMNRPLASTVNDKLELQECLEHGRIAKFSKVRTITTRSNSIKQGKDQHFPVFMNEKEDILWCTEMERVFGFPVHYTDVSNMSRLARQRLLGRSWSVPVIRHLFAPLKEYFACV
T1 sequence (Q9UJW3 whole entry partner, the tested form may be a part): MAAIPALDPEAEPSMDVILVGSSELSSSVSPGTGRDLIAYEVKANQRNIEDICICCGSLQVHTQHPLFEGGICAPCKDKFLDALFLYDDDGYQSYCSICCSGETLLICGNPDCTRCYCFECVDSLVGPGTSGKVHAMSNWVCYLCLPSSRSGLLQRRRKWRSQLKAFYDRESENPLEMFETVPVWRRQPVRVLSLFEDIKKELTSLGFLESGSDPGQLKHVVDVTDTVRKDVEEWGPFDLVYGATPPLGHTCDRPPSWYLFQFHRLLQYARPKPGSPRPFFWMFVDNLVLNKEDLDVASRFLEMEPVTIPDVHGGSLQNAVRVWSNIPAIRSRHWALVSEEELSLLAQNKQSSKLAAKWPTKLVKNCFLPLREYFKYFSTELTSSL
T3 sequence (P15840 whole entry): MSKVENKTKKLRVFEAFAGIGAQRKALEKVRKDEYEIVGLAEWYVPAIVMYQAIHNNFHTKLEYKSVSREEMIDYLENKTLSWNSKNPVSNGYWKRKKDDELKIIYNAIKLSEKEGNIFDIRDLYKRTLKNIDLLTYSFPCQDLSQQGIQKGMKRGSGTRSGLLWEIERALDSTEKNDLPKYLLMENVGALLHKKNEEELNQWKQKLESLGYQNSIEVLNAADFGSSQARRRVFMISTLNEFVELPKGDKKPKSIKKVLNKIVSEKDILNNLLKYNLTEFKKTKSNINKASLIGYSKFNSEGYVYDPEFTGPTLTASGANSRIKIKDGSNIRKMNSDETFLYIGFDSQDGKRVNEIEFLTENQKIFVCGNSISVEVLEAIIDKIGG
T2 sequence (P26358 351-1616): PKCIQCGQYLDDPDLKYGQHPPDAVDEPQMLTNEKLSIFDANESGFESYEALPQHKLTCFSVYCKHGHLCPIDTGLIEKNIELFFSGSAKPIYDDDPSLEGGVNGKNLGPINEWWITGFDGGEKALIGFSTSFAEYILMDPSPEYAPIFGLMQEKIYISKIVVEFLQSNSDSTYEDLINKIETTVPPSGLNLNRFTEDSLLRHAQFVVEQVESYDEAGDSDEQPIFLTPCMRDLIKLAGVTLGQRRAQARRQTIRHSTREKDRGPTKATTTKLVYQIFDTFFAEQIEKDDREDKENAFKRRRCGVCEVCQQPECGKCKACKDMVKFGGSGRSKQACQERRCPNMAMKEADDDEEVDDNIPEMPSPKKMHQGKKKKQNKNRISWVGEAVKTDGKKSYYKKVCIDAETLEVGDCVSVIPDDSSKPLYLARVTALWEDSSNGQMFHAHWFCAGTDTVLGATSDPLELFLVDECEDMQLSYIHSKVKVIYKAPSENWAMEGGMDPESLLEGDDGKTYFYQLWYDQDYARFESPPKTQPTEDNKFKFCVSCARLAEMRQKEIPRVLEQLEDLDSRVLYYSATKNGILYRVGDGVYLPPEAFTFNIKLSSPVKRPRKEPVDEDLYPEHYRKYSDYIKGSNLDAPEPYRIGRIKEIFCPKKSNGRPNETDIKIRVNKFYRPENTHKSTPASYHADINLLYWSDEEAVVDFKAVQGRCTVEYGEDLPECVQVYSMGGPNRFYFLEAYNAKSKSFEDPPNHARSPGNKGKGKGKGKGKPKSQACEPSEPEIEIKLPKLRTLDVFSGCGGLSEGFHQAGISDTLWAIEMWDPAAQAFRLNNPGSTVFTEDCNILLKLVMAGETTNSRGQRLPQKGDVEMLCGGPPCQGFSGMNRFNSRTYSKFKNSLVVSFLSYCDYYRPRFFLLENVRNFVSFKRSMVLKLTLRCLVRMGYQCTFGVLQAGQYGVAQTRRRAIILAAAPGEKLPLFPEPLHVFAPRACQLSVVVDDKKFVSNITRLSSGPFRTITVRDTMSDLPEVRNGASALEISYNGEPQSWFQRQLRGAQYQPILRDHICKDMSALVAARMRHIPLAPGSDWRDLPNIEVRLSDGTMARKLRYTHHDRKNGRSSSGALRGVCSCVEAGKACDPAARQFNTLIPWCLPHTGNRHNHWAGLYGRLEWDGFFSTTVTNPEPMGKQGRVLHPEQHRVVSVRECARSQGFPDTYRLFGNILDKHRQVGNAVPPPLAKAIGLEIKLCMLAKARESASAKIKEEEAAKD

SMILES	DNA intercalation (in words) (calf thymus DNA)	RFU (ethidium bromide fluorescence) (calf thymus DNA; 15 µg/ml ctDNA, 1.5 µM ethidium bromide, DMSO 2370 ± 190)	Percent activity, DNMT3A/DNMT3L Complex (CD-DNMT3A/DNMT3L complex)	Percent activity, RFTS-containing Dnmt1 [1]	remaining activity at 20 µM (M.SssI DNMT)
COc1cccc2c1C(=O)c1c(O)c3c(c(O)c1C2=O)C[C@@](O)(C(C)=O)C[C@@H]3O[C@H]1C[C@H](N)[C@H](O)[C@H](C)O1 [Daunorubicin, daunorubicin, reference compound]	significantly reduced fluorescence	605 ± 33 RFU	–	–	–
Nc1ncn([C@@H]2O[C@H](CO)[C@@H](O)[C@H]2O)c(=O)n1 [5-aza-cytidine, reference compound]	–	–	97±10%	100±11%	100 ± 5%
